In brackets after ≈: the same amount, converted by molar mass. Like-named read-outs stand apart in the source and are kept apart here. Where a SMILES comes first, the peptide text is derived from it. [ ]: non-standard residue; d: D form. Gly(N(CH2)2(3-indolyl)) = O=C(O)CNCCc1c[nH]c2ccccc12; Nspe = C[C@H](NCC(=O)O)c1ccccc1; Nlys = NCCCCNCC(=O)O
Experiments:
E. coli ATCC25922 = tested on: E. coli ATCC25922
In short: (§1)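 Cation-adjusted MHB2 cultures (18 h, subcultured 4 h) adjusted to 2×10^5–5×10^5 CFU/mL in medium with 0.02% BSA and 0.001% acetic acid.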

S. aureus ATCC 25923 = tested on: S. aureus ATCC 25923
In short: as §1

red blood cells = assay: Hemolysis assay; assay type: cell-based, Sprague-Dawley mouse
In short: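 Peptoid is mixed with 10% (v/v) PBS-washed erythrocytes (male Sprague-Dawley […], 13 weeks) and held 1 h at 37 °C. Hemolysis is calculated from 540 nm absorbance of the supernatant, with PBS as 0% and Triton X-100 as 100%.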

Human lung cells (MRC-5) = assay: in vitro
Description: (§2) Human lung cells (MRC-5) were purchased from the Korean Cell Line Bank, and human keratinocytes (HaCaT) were purchased from the AmorePacific R&D Center. All cells were grown in a Dulbecco's modified Eagle's medium containing 10% fetal bovine serum under conditions of 5% CO2 and 37° C. To confirm the effect of a peptoid on cell growth, 3-(4,5-dimethylthiazol-2-yl)-5-(3-carboxymethoxyphenyl)-2-(4-sulfophenyl)-2H-tetrazolium (MTS) cell assay was performed to determine cell viability. An aliquot (100 μL) of a batch including 1.3×10^4 MRC-5 cells/mL or 3×10^4 HaCaT cells/mL was dispensed into each well of a 96-well plate. The cells were grown at 37° C. in a 5% CO2 humid atmosphere and allowed to adhere for 24 hours. When the cells reached approximately 70% confluency, the medium was replaced with serial dilutions of the peptoid stock and incubated for 24 hours. 20 μL of a CellTiter 96 aqueous non-radioactive cell proliferation assay reagent (Promega, USA) including a tetrazolium compound was added to each well.
(§3) The contents in the plate were metabolized by incubating at 37° C. for 4 hours. An MTS-formazan product of viable cells was measured at 490 nm using a microplate reader, and cell viability (%) was calculated by Equation 2 below and compared with untreated cells.
(§4) Cell viability (%)=[A/(Acontrol)]×100 [Equation 2]
(§5) In Equation 2, A is the absorbance of a test well, and Acontrol is the average absorbance of a well containing untreated cells.
(§6) The term “nd” shown in Table 19 below is the abbreviation for not determined, and indicates a value that is too small or too large to be measured.

[1] = tested on: human keratinocytes (HaCaT); assay: in vitro
Description: as §2, §3, §4, §5, §6

E. coli KCTC 2411 = assay: MIC in multidrug-resistant bacteria, modified microdilution method; assay type: cell-based; conditions: Table 14
Description: (§7) The MIC of the prepared peptoid in multidrug-resistant bacteria was measured using a modified microdilution method in a Difco Mueller Hinton medium, and a test was performed on a bacterial pathogen panel with resistant and tolerance to general antibiotics.
(§8) Briefly, a medium containing bovine serum albumin and 0.001% acetic acid was used to continuously dilute a peptoid concentrate 10-times stronger than the final concentration. 10 uμL of the 10-time stronger peptoid concentrate and 90 μL of a Muleller Hinton medium were added to each well of a 96-well plate. Bacteria were added to the plate until the final concentration reached 2×10^5 CFU/mL and then incubated at […] overnight. MIC was defined as a concentration at which bacterial growth is not observed.

[2] = tested on: Enterobacter SP KCTC 2625; assay: as above; assay type: cell-based; conditions: Table 14
Description: as §7, §8

[3] = tested on: Enterococcus Faecium KCTC 13225; assay: as above; assay type: cell-based; conditions: Table 14
Description: as §7, §8

[4] = tested on: Enterococcus faecalis KCTC 3511; assay: as above; assay type: cell-based; conditions: Table 14
Description: as §7, §8

in vitro = conditions: human, LC50 MRC-5
Description: as §2, §3, §4, §5, §6

[5] = HPLC to confirm peptoid decomposition after counter ion substitution; assay type: physicochemical; conditions: HPLC at 220 nm; HCl and AcOH
Description: FIGS. 76 to 83 are the HPLC results for Peptoids 1, 10, 11, 14, 15, 29, 32 and 37 of the present inventive concept to confirm the decomposition of the peptoids after counter ion substitution using (a) HCl and (b) AcOH.
Referring to FIGS. […], HPLC was performed for Peptoids 1, 10, 11, 14, 15, 29, 32 and 37 of the present inventive concept. Since the chloride (HCl) is a stronger acid than TFA, it can decompose acid-vulnerable peptoid compounds.

[6] = Table 18, TFA salt vs counter ion-substituted (HCl, AcOH) peptoids
[7] = Tables 11-13, 24 hours at 37° C., maximum concentration 25 μM

Question: With C[C@@H](c1ccccc1)N(CC(=O)N(CCCCN)CC(=O)N(CCc1c[nH]c2ccccc12)CC(=O)N(CCc1c[nH]c2ccccc12)CC(N)=O)C(=O)CN(CCCCN)C(=O)CN(CCCCN)C(=O)CN(C(=O)CN(C(=O)CN(CCCCN)C(=O)CN(C(=O)CN(C(=O)CNCCCCN)[C@@H](C)c1ccccc1)[C@@H](C)c1ccccc1)[C@@H](C)c1ccccc1)[C@@H](C)c1ccccc1 [Peptoid 29-1] (H-[Nlys][Nspe][Nspe][Nlys][Nspe][Nspe][Nlys][Nlys][Nspe][Nlys][Gly(N(CH2)2(3-indolyl))][Gly(N(CH2)2(3-indolyl))]-NH2) as the molecule, how does the “MIC E. coli ATCC25922” value (E. coli ATCC25922; [6]) read?
Answer: 12.5 µM

Question: What about the “MIC S. aureus ATCC 25923” value (S. aureus ATCC 25923; [6]) of the same molecule?
Answer: 12.5 µM

Question: What about the HC10 (red blood cells) of the same molecule?
Answer: >100/>100 μM

Question: And the HC50 (red blood cells)?
Answer: >100/>100 μM

Question: What about the “Hmax (100 μM)” value (red blood cells) of the same molecule?
Answer: 4.3 ± 0.3%

Question: And the “LC50 / animal cell toxicity, MRC-5 (in words)” value (Human lung cells (MRC-5))?
Answer: LC50 values of the peptoids increase

Question: What about the “LC50 / animal cell toxicity, HaCaT (in words)” value [1] of the same molecule?
Answer: LC50 values of the peptoids increase

Question: Which “MIC E. coli ATCC25922” value (E. coli ATCC25922; [6]) does the source give for C[C@@H](c1ccccc1)N(CC(=O)N(CCCCN)CC(=O)N(CCc1c[nH]c2ccccc12)CC(=O)N(CCc1c[nH]c2ccccc12)CC(N)=O)C(=O)CN(CCCCN)C(=O)CN(CCCCN)C(=O)CN(C(=O)CN(C(=O)CN(CCCCN)C(=O)CN(C(=O)CN(C(=O)CNCCCCN)[C@@H](C)c1ccccc1)[C@@H](C)c1ccccc1)[C@@H](C)c1ccccc1)[C@@H](C)c1ccccc1 [Peptoid 29-2] (H-[Nlys][Nspe][Nspe][Nlys][Nspe][Nspe][Nlys][Nlys][Nspe][Nlys][Gly(N(CH2)2(3-indolyl))][Gly(N(CH2)2(3-indolyl))]-NH2) here?
Answer: 6.3 µM

Question: And the “MIC S. aureus ATCC 25923” value (S. aureus ATCC 25923; [6])?
Answer: 12.5 µM

Question: What about the HC10 (red blood cells) of the same molecule?
Answer: >100/>100 μM

Question: And the HC50 (red blood cells)?
Answer: >100/>100 μM

Question: And the “Hmax (100 μM)” value (red blood cells)?
Answer: 5.2 ± 0.2%

Question: And the “LC50 / animal cell toxicity, MRC-5 (in words)” value (Human lung cells (MRC-5))?
Answer: LC50 values of the peptoids increase

Question: And the “LC50 / animal cell toxicity, HaCaT (in words)” value [1]?
Answer: LC50 values of the peptoids increase

Question: Which results are given for C[C@@H](c1ccccc1)N(CC(N)=O)C(=O)CN(C(=O)CN(CCCCN)C(=O)CN(C(=O)CN(C(=O)CN(CCCCN)C(=O)CN(C(=O)CN(C(=O)CN(CCCCN)C(=O)CN(CCc1c[nH]c2ccccc12)C(=O)CN(CCc1c[nH]c2ccccc12)C(=O)CNCCCCN)[C@@H](C)c1ccccc1)[C@@H](C)c1ccccc1)[C@@H](C)c1ccccc1)[C@@H](C)c1ccccc1)[C@@H](C)c1ccccc1 [Peptoid 14, H-NLys-NhTrp-NhTrp-NLys-Nspe-Nspe-NLys-Nspe-Nspe-NLys-Nspe-Nspe-NH2]?
Answer: MIC E. coli ATCC25922 (E. coli ATCC25922; [6]): 3.1 µM; MIC E. coli ATCC25922 (E. coli ATCC25922; [7]): 3.1 µM (≈ 5.88 µg/mL); MIC S. aureus ATCC 25923 (S. aureus ATCC 25923; [6]): 1.6 µM; MIC S. aureus ATCC 25923 (S. aureus ATCC 25923; [7]): <0.8 µM; HC10 (red blood cells): 12.5 µM; HC50 (red blood cells): 21.1 µM; HC10 (red blood cells; Tables 11-13, concentration that induces hemolysis in 10% red blood cells): 23.6 µM; HC50 (red blood cells; Tables 11-13, concentration that induces hemolysis in 50% red blood cells): 43.4 µM; MIC E. coli KCTC 2411 (E. coli KCTC 2411): 6.3 µM (≈ 12 µg/mL); MIC Enterobacter SP KCTC 2625 [2]: 3.1 µM (≈ 5.88 µg/mL); MIC Enterococcus Faecium KCTC 13225 [3]: < 0.8 µM; MIC Enterococcus faecalis KCTC 3511 [4]: 1.6 µM (≈ 3.04 µg/mL); CC50 at 24 h (in vitro): 9.7 µM; peptoid decomposition after counter ion substitution (in words) [5]: almost no peptoid decomposition occurred

Question: With C[C@@H](c1ccccc1)N(CC(=O)N(CCCCN)CC(=O)N(CC(=O)N(CC(=O)N(CCCCN)CC(=O)N(CC(=O)N(CC(=O)N(CCCCN)CC(=O)N(CCc1c[nH]c2ccccc12)CC(=O)N(CCc1c[nH]c2ccccc12)CC(N)=O)[C@@H](C)c1ccccc1)[C@@H](C)c1ccccc1)[C@@H](C)c1ccccc1)[C@@H](C)c1ccccc1)C(=O)CN(C(=O)CNCCCCN)[C@@H](C)c1ccccc1 [Peptoid 11, H-NLys-Nspe-Nspe-NLys-Nspe-Nspe-NLys-Nspe-Nspe-NLys-NhTrp-NhTrp-NH2] (H-[Nlys][Nspe][Nspe][Nlys][Nspe][Nspe][Nlys][Nspe][Nspe][Nlys][Gly(N(CH2)2(3-indolyl))][Gly(N(CH2)2(3-indolyl))]-NH2) as the molecule, how does the “MIC E. coli ATCC25922” value (E. coli ATCC25922; [6]) read?
Answer: 3.1 µM

Question: What about the “MIC E. coli ATCC25922” value (E. coli ATCC25922; [7]) of the same molecule?
Answer: 6.3 µM (≈ 12 µg/mL)

Question: And the “MIC S. aureus ATCC 25923” value (S. aureus ATCC 25923; [6])?
Answer: 1.6 µM

Question: And the “MIC S. aureus ATCC 25923” value (S. aureus ATCC 25923; [7])?
Answer: 1.6 µM (≈ 3.04 µg/mL)

Question: What about the MIC E. coli KCTC 2411 (E. coli KCTC 2411) of the same molecule?
Answer: 12.5 µM (≈ 23.7 µg/mL)

Question: And the MIC Enterobacter SP KCTC 2625 [2]?
Answer: 6.3 µM (≈ 12 µg/mL)

Question: What about the MIC Enterococcus Faecium KCTC 13225 [3] of the same molecule?
Answer: < 0.8 µM

Question: And the MIC Enterococcus faecalis KCTC 3511 [4]?
Answer: < 0.8 µM

Question: And the CC50 at 24 h (in vitro)?
Answer: 6.9 µM

Question: And the “peptoid decomposition after counter ion substitution (in words)” value [5]?
Answer: almost no peptoid decomposition occurred

Question: Which “MIC E. coli ATCC25922” value (E. coli ATCC25922; [6]) does the source give for C[C@@H](c1ccccc1)N(CC(N)=O)C(=O)CN(CCCCN)C(=O)CN(CCCCN)C(=O)CN(C(=O)CN(C(=O)CN(CCCCN)C(=O)CN(C(=O)CN(C(=O)CN(CCCCN)C(=O)CN(CCc1c[nH]c2ccccc12)C(=O)CN(CCc1c[nH]c2ccccc12)C(=O)CNCCCCN)[C@@H](C)c1ccccc1)[C@@H](C)c1ccccc1)[C@@H](C)c1ccccc1)[C@@H](C)c1ccccc1 [Peptoid 32-2] here?
Answer: 6.3 µM

Question: What about the “MIC S. aureus ATCC 25923” value (S. aureus ATCC 25923; [6]) of the same molecule?
Answer: 6.3 µM

Question: What about the HC10 (red blood cells) of the same molecule?
Answer: 83.0 µM

Question: What about the HC50 (red blood cells) of the same molecule?
Answer: > 100 µM

Question: What about the “Hmax (100 μM)” value (red blood cells) of the same molecule?
Answer: 13.8 ± 1.1%

Question: And the “LC50 / animal cell toxicity, MRC-5 (in words)” value (Human lung cells (MRC-5))?
Answer: LC50 values of the peptoids increase

Question: What about the “LC50 / animal cell toxicity, HaCaT (in words)” value [1] of the same molecule?
Answer: LC50 values of the peptoids increase
